Experiments:
Assay in all cases: relative viability (nuclei count vs DMSO), 5 days (fraction); higher = more cells survive
[1] = compound: Cc1cnc(Nc2ccc(OCCN3CCCC3)cc2)nc1Nc1cccc(S(=O)(=O)NC(C)(C)C)c1 [Fedratinib] + C[C@]1(O)C[C@@H](c2nc(-c3ccc4ccc(-c5ccccc5)nc4c3)c3c(N)nccn32)C1 [Linsitinib] (partner 1 µM)
Method in brief: (§1)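 Each reported value is a median over duplicate plates. It expresses relative viability: treated-well nuclei count divided by vehicle-well nuclei count. Lung cancer cell lines in 1536-well plates were dosed by pin tool a day after seeding, alone with one drug or with a fixed anchor-drug dose plus five library-drug doses (not always all listed) in √10 steps, and nuclei were counted after 5 days.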

[2] = compound: Cc1cnc(Nc2ccc(OCCN3CCCC3)cc2)nc1Nc1cccc(S(=O)(=O)NC(C)(C)C)c1 [Fedratinib] + CC(C)C[C@H](NC(=O)[C@H](Cc1ccccc1)NC(=O)c1cnccn1)B(O)O [Bortezomib] (partner 0.002 µM)
Method in brief: as §1

[3] = compound: COC1=CC=C(C=C1)COC2=C(C=C(C=C2)CC3=CN=C(N=C3N)N)OC [GW-2580] + C[C@@H](Oc1cc(-c2cnn(C3CCNCC3)c2)cnc1N)c1c(Cl)ccc(F)c1Cl [Crizotinib] (partner 1 µM)
Method in brief: as §1

[4] = compound: Cc1cnc(Nc2ccc(OCCN3CCCC3)cc2)nc1Nc1cccc(S(=O)(=O)NC(C)(C)C)c1 [Fedratinib] + COc1cc2c(Oc3ccc(NC(=O)C4(C(=O)Nc5ccc(F)cc5)CC4)cc3F)ccnc2cc1OCCCN1CCOCC1 [Foretinib] (partner 0.25 µM)
Method in brief: as §1

[5] = compound: Cc1cnc(Nc2ccc(OCCN3CCCC3)cc2)nc1Nc1cccc(S(=O)(=O)NC(C)(C)C)c1 [Fedratinib] + CC(=O)Nc1cccc(-n2c(=O)n(C3CC3)c(=O)c3c(Nc4ccc(I)cc4F)n(C)c(=O)c(C)c32)c1 [Trametinib] (partner 0.02 µM)
Method in brief: as §1

[6] = compound: COC1=CC=C(C=C1)COC2=C(C=C(C=C2)CC3=CN=C(N=C3N)N)OC [GW-2580] + Cc1cc(Nc2cc(N3CCN(C)CC3)nc(Sc3ccc(NC(=O)C4CC4)cc3)n2)n[nH]1 [Tozasertib] (partner 0.1 µM)
Method in brief: as §1

| Cell Line | relative viability ([1]; first compound 0.1 µM) | relative viability ([1]; first compound 0.3162 µM) | relative viability ([1]; first compound 1 µM) | relative viability ([2]; first compound 0.1 µM) | relative viability ([2]; first compound 0.3162 µM) | relative viability ([2]; first compound 1 µM) | relative viability ([3]; first compound 0.08 µM) | relative viability ([3]; first compound 0.8 µM) | relative viability ([3]; first compound 2.53 µM) | relative viability ([3]; first compound 8 µM) | relative viability ([4]; first compound 0.1 µM) | relative viability ([4]; first compound 0.3162 µM) | relative viability ([4]; first compound 1 µM) | relative viability ([5]; first compound 0.1 µM) | relative viability ([5]; first compound 0.3162 µM) | relative viability ([5]; first compound 1 µM) | relative viability ([6]; first compound 0.08 µM) | relative viability ([6]; first compound 0.8 µM) | relative viability ([6]; first compound 2.53 µM) | relative viability ([6]; first compound 8 µM) |
| --- | --- | --- | --- | --- | --- | --- | --- | --- | --- | --- | --- | --- | --- | --- | --- | --- | --- | --- | --- | --- |
| HCC-15 | 0.755 | 0.719 | 0.734 | 1.04 | 0.963 | 0.469 | 0.961 | 0.956 | 0.775 | 0.751 | 1.02 | 1.01 | 0.86 | 0.393 | 0.365 | 0.357 | 0.489 | 0.562 | 0.615 | 0.222 |
| HCC-44 | 0.621 | 0.652 | 0.667 | 0.905 | 0.827 | 0.734 | 0.899 | 0.843 | 0.751 | 0.839 |  |  |  | 1.15 | 1.01 | 1.11 | 1.13 | 0.913 | 0.937 | 0.918 |
| HCC-78 | 0.427 |  | 0.49 | 0.439 | 0.535 | 0.511 | 0.331 | 0.384 | 0.287 | 0.297 | 0.504 | 0.548 | 0.509 | 0.677 | 0.776 | 0.938 | 0.253 | 0.357 | 0.401 | 0.314 |
| HCC-366 | 0.55 | 0.663 | 0.663 | 1.22 | 1 | 0.174 | 0.618 | 0.581 | 0.334 | 0.509 | 0.918 | 0.922 | 0.911 | 0.363 | 0.36 | 0.257 | 0.102 | 0.146 | 0.12 | 0.19 |
| IA-LM | 0.547 | 0.546 | 0.786 | 0.747 | 0.784 | 0.642 | 0.962 | 0.732 | 1.02 | 0.836 | 1.15 | 1.23 | 1.12 |  |  |  |  |  |  |  |
| LK-2 | 0.349 | 0.733 | 0.495 |  |  |  | 0.22 | 0.247 | 0.218 | 0.208 | 1.1 | 1.14 | 1.14 | 0.799 | 0.8 | 0.605 | 0.173 | 0.166 | 0.192 | 0.171 |
| NCI-H358 | 0.565 | 0.597 | 0.53 |  |  |  | 0.654 | 0.543 | 0.554 | 0.502 | 0.482 | 0.63 | 0.541 | 0.126 | 0.125 | 0.111 | 0.103 | 0.117 | 0.11 | 0.104 |
| NCI-H522 |  |  |  |  |  |  |  |  |  |  |  |  |  | 0.675 | 0.62 | 0.681 | 0.551 | 0.579 | 0.318 | 0.541 |
| NCI-H1299 | 0.946 | 0.96 | 0.994 | 1.05 | 1.02 | 1.01 | 0.974 | 0.984 | 0.972 | 0.892 | 1.06 | 1.09 | 1.07 |  |  |  |  |  |  |  |
| NCI-H1395 | 1.2 | 1.29 | 1.28 |  |  |  |  |  |  |  | 0.926 | 0.956 | 0.959 | 0.979 | 0.962 | 0.814 | 0.829 | 0.805 | 0.658 | 0.734 |
| NCI-H1563 | 1.16 | 1.18 | 1.16 | 0.699 | 0.939 | 0.631 | 0.836 | 0.936 | 0.875 | 0.77 | 0.894 | 0.927 | 0.874 |  |  |  |  |  |  |  |
| NCI-H1648 |  |  |  |  |  |  |  |  |  |  |  |  |  | 0.383 | 0.441 | 0.43 | 0.427 |  |  | 0.429 |
| NCI-H1650 |  |  |  | 0.199 | 0.221 | 0.193 | 1.06 | 1.29 | 1.36 | 0.919 |  | 1.1 | 0.885 | 0.534 | 0.545 | 0.642 | 0.455 | 0.543 | 0.452 | 0.363 |
| NCI-H1703 |  | 0.98 | 0.615 | 0.244 | 0.341 | 0.24 | 0.752 | 0.631 | 0.714 | 0.647 | 0.317 | 0.296 | 0.324 |  |  |  |  |  |  |  |
| NCI-H1792 | 0.611 | 0.547 | 0.542 | 1.14 | 0.994 | 0.887 | 1.03 | 1.13 | 0.733 | 1.13 |  |  |  | 0.365 | 0.364 | 0.449 |  |  |  |  |
| NCI-H1793 | 0.937 | 0.857 | 0.899 |  |  |  |  |  |  |  | 0.506 | 0.765 | 0.45 | 0.493 | 0.399 | 0.416 | 0.379 | 0.3 | 0.281 | 0.307 |
| NCI-H1944 | 1.28 | 1.12 | 1.1 |  |  |  | 1.21 | 1.01 | 1.4 | 1.03 | 0.837 | 0.962 | 0.824 | 0.448 | 0.422 | 0.42 | 0.267 | 0.256 | 0.253 | 0.205 |
| NCI-H2170 |  |  |  |  |  |  | 1.23 | 1.33 | 1.22 | 1.36 | 1.02 | 0.996 | 1.02 | 0.931 | 0.887 | 0.847 | 1.04 | 0.816 | 0.777 | 0.677 |
| NCI-H2342 |  |  |  |  |  |  |  |  |  |  | 1.05 | 1.07 | 0.989 | 0.858 | 1.1 | 1.01 | 0.557 | 0.498 | 0.516 | 0.418 |
| SK-MES-1 | 1.08 | 1.11 | 1 |  |  |  | 1.01 | 1.04 | 0.871 | 1 | 0.865 | 1.07 | 0.795 | 0.547 | 0.581 | 0.476 | 1.06 | 1.06 | 0.88 | 0.816 |
| SW 900 |  |  |  |  |  |  |  |  |  |  | 0.868 | 1.05 | 0.804 | 0.748 | 0.802 | 0.798 | 0.572 | 0.559 | 0.6 | 0.559 |

From the supplement of paper PMC10307832
